From patent US7041681B2, “Compounds as opioid receptor modulators” (Janssen Pharmaceutica N.V., priority 2002, dated 2006)

What was measured:
mu opioid receptor = biological target: T1, mu opioid receptor (Rattus norvegicus, UniProt P33535); experiment: Rat Brain mu Opioid Receptor Binding Assay; conditions: rat forebrain membranes, ~0.8 nM [3H]DAMGO, 25° C., 2.5 h; read-out: μ-opioid binding (Ki)
T1 construct: from tissue; host or cells: rat forebrain homogenate (Wistar rat)
Protocol: (§1) Male, Wistar rats (150–250 g, VAF, Charles River, Kingston, N.Y.) are killed by cervical dislocation, and their brains removed and placed immediately in ice cold Tris HCl buffer (50 mM, pH 7.4). The forebrains are separated from the remainder of the brain by a coronal transection, beginning dorsally at the colliculi and passing ventrally through the midbrain-pontine junction. After dissection, the forebrains are homogenized in Tris buffer in a Teflon®-glass homogenizer. The homogenize is diluted to a concentration of 1 g of forebrain tissue per 80 mL Tris and centrifuged at 39,000×g for 10 min. The pellet is resuspended in the same volume of Tris buffer containing 5 mM MgCl2 with several brief pulses from a Polytron homogenizer. This particulate preparation is used for the mu-opioid binding assays. Following incubation with the mu selective peptide ligand ˜0.8 nM [^3H]DAMGO at 25° C. for 2.5 h in a 96-well plate with total 1 ml, the plate contents are filtered through Wallac filtermat B sheets on a Tomtec 96-well harvester. The filters are rinsed three times with 2 mL of 10 mM HEPES (pH7.4), and dried in a microwave oven 1:45 min twice. To each sample area 2×40 μl of Betaplate Scint scintillation fluid (LKB) is added and analyzed on a LKB (Wallac) 1205 BetaPlate liquid scintillation counter.
(§2) The data are used to calculate either the % inhibition compared to control binding (when only a single concentration of test compound is evaluated) or a Ki value (when a range of concentrations is tested). % inhibition is calculated as: [(total dpm-test compound dpm dpm)/(total dpm-nonspecific dpm)]*100. Kd and Ki values were calculated using GraphPad PRISM data analysis program.

delta opioid receptor = biological target: T2, delta opioid receptor (Rattus norvegicus, UniProt P33533); experiment: Rat Brain Delta Opioid Receptor Binding Assay; conditions: rat forebrain membranes, ~4 nM [3H]DPDPE, 25° C., 2.5 h; read-out: δ-opioid binding (Ki)
T2 construct: from tissue; host or cells: rat forebrain homogenate (Wistar rat)
T2 sequence (P33533 whole entry): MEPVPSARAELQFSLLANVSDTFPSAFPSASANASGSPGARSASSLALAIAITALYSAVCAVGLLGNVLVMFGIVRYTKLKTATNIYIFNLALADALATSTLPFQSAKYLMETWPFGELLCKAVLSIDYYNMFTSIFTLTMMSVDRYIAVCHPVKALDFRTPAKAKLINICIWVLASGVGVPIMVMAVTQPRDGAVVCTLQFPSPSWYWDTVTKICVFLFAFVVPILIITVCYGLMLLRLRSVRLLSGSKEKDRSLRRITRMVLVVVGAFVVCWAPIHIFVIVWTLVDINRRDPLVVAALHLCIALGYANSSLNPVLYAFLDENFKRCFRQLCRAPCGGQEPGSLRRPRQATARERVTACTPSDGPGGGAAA
Protocol: as §1, with “delta opioid” for “mu-opioid”, “delta” for “mu”, “˜4” for “˜0.8”, “[^3H]DPDPE” for “[^3H]DAMGO”, “total volume of” for “total”
as §2

T1 sequence (P33535 whole entry): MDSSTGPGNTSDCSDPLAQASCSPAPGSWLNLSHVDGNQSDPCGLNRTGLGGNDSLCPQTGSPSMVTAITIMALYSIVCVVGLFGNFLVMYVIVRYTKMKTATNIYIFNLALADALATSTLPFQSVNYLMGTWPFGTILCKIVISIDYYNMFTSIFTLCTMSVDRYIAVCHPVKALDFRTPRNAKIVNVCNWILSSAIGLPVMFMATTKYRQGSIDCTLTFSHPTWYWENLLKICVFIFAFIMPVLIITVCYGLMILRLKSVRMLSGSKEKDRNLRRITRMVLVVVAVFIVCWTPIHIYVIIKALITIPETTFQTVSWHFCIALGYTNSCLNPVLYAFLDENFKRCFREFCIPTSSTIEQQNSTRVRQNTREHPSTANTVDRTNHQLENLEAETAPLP

Structure (SMILES) | Ki (mu opioid receptor) [nM] | Ki (delta opioid receptor) [nM]
Cc1cc(OC(=O)C(C)(C)C)cc(C)c1C[C@H](N)C(=O)N1Cc2ccccc2C[C@H]1c1nc(-c2ccccc2)c[nH]1 [Cmpd 116] | 9.6 | 3.5
CN1CCN(C(=O)c2ccc(C[C@H](N)C(=O)N3CCCC[C@H]3c3nc(-c4ccccc4)c[nH]3)cc2)CC1 [Cmpd 3] | 10000 | 10000
CN[C@@H](Cc1c(C)cc(OC)cc1C)C(=O)N1CCCC[C@H]1c1nc(-c2ccccc2)c[nH]1 [Cmpd 33] | 42.9 | 273
CCNC(=O)c1ccc(C[C@H](N)C(=O)N2CCCC[C@H]2c2nc(-c3ccccc3)c[nH]2)cc1 [Cmpd 1] | 0.15 | 20.9
Cc1cc(O)cc(C)c1CC(N)C(=O)N1CCCCC1c1nc(-c2ccccc2)no1 (stereo not shown) [Cmpd 19] | 0.14 | 46.3
NC(=O)c1ccc(C[C@H](N)C(=O)N2CCCC[C@H]2c2nc(-c3ccccc3)c[nH]2)cc1 [Cmpd 15] | 2.6 | 65.3
Cc1cc(O)cc(C)c1C[C@H](N)C(=O)N1Cc2ccccc2C[C@H]1c1nc(-c2ccccc2)c(Br)[nH]1 [Cmpd 132] | 0.17 | 0.1
CC(=O)Oc1cc(C)c(CC(N)C(=O)N2Cc3ccccc3CC2c2nc(-c3ccccc3)c[nH]2)c(C)c1 (stereo not shown) [Cmpd 113] | 0.5 | 0.2
COc1cc(C)c(CC(N)C(=O)N2Cc3ccccc3CC2c2nc(-c3ccccc3)c[nH]2)c(C)c1 (stereo not shown) [Cmpd 147] | 150 | 43
CNC(=O)c1ccc(C[C@H](N)C(=O)N2Cc3ccccc3C[C@H]2c2nc(-c3ccccc3)c[nH]2)cc1 [Cmpd 117] | 23.6 | 1.61
C[C@](N)(Cc1ccc(OCc2ccccc2)cc1)C(=O)N1Cc2ccccc2C[C@H]1c1nc(-c2ccccc2)c[nH]1 [Cmpd 122] | 2520 | 346
Cc1[nH]c([C@@H]2Cc3ccccc3CN2C(=O)[C@@H](N)Cc2ccc(F)cc2)nc1-c1ccccc1 [Cmpd 143] | 12800 | 687
N[C@@H](Cc1ccc(S(N)(=O)=O)cc1)C(=O)N1Cc2ccccc2C[C@H]1c1nc(-c2ccccc2)c[nH]1 [Cmpd 104] | 592 | 174
O=C(C(Cc1ccc(O)cc1)NCc1ccccc1)N1Cc2ccccc2CC1c1nc(-c2ccccc2)c[nH]1 (stereo not shown) [Cmpd 135] | 10000 | 185
CN[C@@H](Cc1c(C)cc(O)cc1C)C(=O)N1Cc2ccccc2C[C@H]1c1nc(-c2ccccc2)c[nH]1 [Cmpd 127] | 7.1 | 0.4
CN(C)C(=O)c1ccc(C[C@H](N)C(=O)N2CCCC[C@H]2c2nc(-c3ccccc3)c[nH]2)cc1 [Cmpd 4] | 135 | 764
CN[C@@H](Cc1ccc(O)cc1)C(=O)N1Cc2ccccc2C[C@H]1c1nc(-c2ccccc2)c(C)[nH]1 [Cmpd 157] | 30 | 0.57
CNC(Cc1c(C)cc(OC)cc1C)C(=O)N1Cc2ccccc2CC1c1nc(-c2ccccc2)c[nH]1 (stereo not shown) [Cmpd 146] | 817 | 668
NC(Cc1ccc(C(=O)O)cc1)C(=O)N1Cc2ccccc2CC1c1nc(-c2ccccc2)c[nH]1 (stereo not shown) [Cmpd 106] | 5780 | 5200
CN[C@@H](Cc1c(C)cc(O)cc1C)C(=O)N1CCCC[C@H]1c1nc(-c2ccccc2)c[nH]1 [Cmpd 28] | 0.3 | 21.5
NCc1ccc(C[C@H](N)C(=O)N2CCCC[C@H]2c2nc(-c3ccccc3)c[nH]2)cc1 [Cmpd 18] | 409 | 7520
N[C@@H](Cc1ccc(S(N)(=O)=O)cc1)C(=O)N1CCCC[C@H]1c1nc(-c2ccccc2)c[nH]1 [Cmpd 5] | 40.8 | 6180
CC(N)(Cc1ccc(O)cc1)C(=O)N1CCCCC1c1nc(-c2ccccc2)c[nH]1 (stereo not shown) [Cmpd 25] | 1.69 | 107
Cc1cc(O)cc(C)c1C[C@H](N)C(=O)N1CCCC[C@H]1c1nc(-c2ccccc2)c(C)[nH]1 [Cmpd 29] | 0.09 | 0.51
Cc1cc(O)cc(C)c1C[C@H](N)C(=O)N1Cc2ccccc2C[C@H]1c1nc(-c2ccccc2)c(Cl)[nH]1 [Cmpd 133] | 0.18 | 0.12
N[C@@H](Cc1cc(F)c(O)c(F)c1)C(=O)N1Cc2ccccc2C[C@H]1c1nc(-c2ccccc2)c[nH]1 [Cmpd 109] | 167 | 12.6
